# Experimental data reported in PubChem BioAssay AID1963875 (Molecular Pharmacology Branch, DTP, NCI, 2024).
# Test system: KRAS-mutant PDC complex spheroid viability
# Experiment: Anticancer human tumor 186277-243-T-J2-PDC patient-derived colon adenocarcinoma cell line growth inhibition [KRAS2]
# Settings: for IC50: curve of first compound; for viability, T/C: stronger effect = lower value
# In short: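 Combination screen of spheroid viability in tumor-cell co-cultures with endothelial (HUVEC) and mesenchymal stem cell stroma. Each agent was tested in half-log dilutions, topping at clinical Cmax or at 10 microM without a known Cmax.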
# [1] = second compound 0.1 µM, first compound 0.0316 µM
# [2] = second compound 0.1 µM, first compound 0.1 µM
# [3] = second compound 0.316 µM, first compound 0.0316 µM
# [4] = second compound 0.316 µM, first compound 0.1 µM
# [5] = second compound 1 µM, first compound 0.0316 µM
# [6] = second compound 1 µM, first compound 0.1 µM
# [7] = second compound 3.16 µM, first compound 0.0316 µM
# [8] = second compound 3.16 µM, first compound 0.1 µM
# [9] = second compound 10 µM, first compound 0.0316 µM
# [10] = second compound 10 µM, first compound 0.1 µM
# [11] = second compound 0.1 µM, first compound 0.316 µM
# [12] = second compound 0.1 µM, first compound 1 µM
# [13] = second compound 0.1 µM, first compound 3.16 µM
# [14] = second compound 0.1 µM, first compound 10 µM
# [15] = second compound 0.316 µM, first compound 0.316 µM
# [16] = second compound 0.316 µM, first compound 1 µM
# [17] = second compound 0.316 µM, first compound 3.16 µM
# [18] = second compound 0.316 µM, first compound 10 µM
# [19] = second compound 1 µM, first compound 0.316 µM
# [20] = second compound 1 µM, first compound 1 µM
# [21] = second compound 1 µM, first compound 3.16 µM
# [22] = second compound 1 µM, first compound 10 µM
# [23] = second compound 3.16 µM, first compound 0.316 µM
# [24] = second compound 3.16 µM, first compound 1 µM
# [25] = second compound 3.16 µM, first compound 3.16 µM
# [26] = second compound 3.16 µM, first compound 10 µM
# [27] = second compound 10 µM, first compound 0.316 µM
# [28] = second compound 10 µM, first compound 1 µM
# [29] = second compound 10 µM, first compound 3.16 µM
# [30] = second compound 10 µM, first compound 10 µM
# 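Wherever viability, T/C is given: viability read after seven days of compound exposure; 100% = DMSO vehicle-treated spheroids so lower means less viable.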
SMILES,IC50 (second compound 0.1 µM),IC50 (second compound 0.316 µM),IC50 (second compound 1 µM),IC50 (second compound 3.16 µM),IC50 (second compound 10 µM),"viability, T/C [1]","viability, T/C [2]","viability, T/C [3]","viability, T/C [4]","viability, T/C [5]","viability, T/C [6]","viability, T/C [7]","viability, T/C [8]","viability, T/C [9]","viability, T/C [10]","viability, T/C [11]","viability, T/C [12]","viability, T/C [13]","viability, T/C [14]","viability, T/C [15]",other results
CN(C)C/C=C/C(=O)Nc1cc2c(Nc3ccc(F)c(Cl)c3)ncnc2cc1O[C@H]1CCOC1 + CC1OCC2(CCN(c3cnc(Sc4ccnc(N)c4Cl)c(N)n3)CC2)C1N,> 0.1 µM,> 0.1 µM,> 0.1 µM,0.0289 µM,0.0278 µM,100%,108%,84.5%,81.4%,99.8%,99.5%,49.4%,34.6%,44.6%,38.4%,–,–,–,–,–,"viability, T/C (second compound 0.1 µM, first compound 0.000316 µM): 92.7%; viability, T/C (second compound 0.1 µM, first compound 0.001 µM): 104%; viability, T/C (second compound 0.1 µM, first compound 0.00316 µM): 104%; viability, T/C (second compound 0.1 µM, first compound 0.01 µM): 126%; viability, T/C (second compound 0.316 µM, first compound 0.000316 µM): 103%; viability, T/C (second compound 0.316 µM, first compound 0.001 µM): 101%; viability, T/C (second compound 0.316 µM, first compound 0.00316 µM): 112%; viability, T/C (second compound 0.316 µM, first compound 0.01 µM): 104%; viability, T/C (second compound 1 µM, first compound 0.000316 µM): 92.5%; viability, T/C (second compound 1 µM, first compound 0.001 µM): 90.5%; viability, T/C (second compound 1 µM, first compound 0.00316 µM): 93.5%; viability, T/C (second compound 1 µM, first compound 0.01 µM): 99.8%; viability, T/C (second compound 3.16 µM, first compound 0.000316 µM): 97.8%; viability, T/C (second compound 3.16 µM, first compound 0.001 µM): 81.3%; viability, T/C (second compound 3.16 µM, first compound 0.00316 µM): 87.7%; viability, T/C (second compound 3.16 µM, first compound 0.01 µM): 62.6%; viability, T/C (second compound 10 µM, first compound 0.000316 µM): 92.9%; viability, T/C (second compound 10 µM, first compound 0.001 µM): 92%; viability, T/C (second compound 10 µM, first compound 0.00316 µM): 79.6%; viability, T/C (second compound 10 µM, first compound 0.01 µM): 103%"
COC(=O)c1ccc2c(C(=Nc3ccc(N(C)C(=O)CN4CCN(C)CC4)cc3)c3ccccc3)c(O)[nH]c2c1 + CC1OCC2(CCN(c3cnc(Sc4ccnc(N)c4Cl)c(N)n3)CC2)C1N,2.14 µM,1.85 µM,1.51 µM,0.692 µM,0.368 µM,105%,108%,108%,105%,116%,108%,103%,93.2%,83%,82%,116%,120%,18%,12.9%,113%,"viability, T/C [16]: 98.9%; viability, T/C [17]: 4.62%; viability, T/C [18]: 10.2%; viability, T/C [19]: 100%; viability, T/C [20]: 74.8%; viability, T/C [21]: 4.4%; viability, T/C [22]: 4.44%; viability, T/C [23]: 94%; viability, T/C [24]: 29.4%; viability, T/C [25]: 1.17%; viability, T/C [26]: 1.68%; viability, T/C [27]: 54.5%; viability, T/C [28]: 15.6%; viability, T/C [29]: 0.48%; viability, T/C [30]: 0.71%"
O=C(c1cc(Cc2n[nH]c(=O)c3ccccc23)ccc1F)N1CCN(C(=O)C2CC2)CC1 + CC1OCC2(CCN(c3cnc(Sc4ccnc(N)c4Cl)c(N)n3)CC2)C1N,6.48 µM,6.08 µM,3.95 µM,1.9 µM,0.614 µM,118%,112%,129%,124%,122%,113%,92.2%,94.9%,86.7%,66%,114%,109%,81%,31.3%,106%,"viability, T/C [16]: 115%; viability, T/C [17]: 75%; viability, T/C [18]: 28.8%; viability, T/C [19]: 126%; viability, T/C [20]: 103%; viability, T/C [21]: 56.8%; viability, T/C [22]: 23.8%; viability, T/C [23]: 87.4%; viability, T/C [24]: 70.3%; viability, T/C [25]: 33.9%; viability, T/C [26]: 16.3%; viability, T/C [27]: 62.9%; viability, T/C [28]: 45.8%; viability, T/C [29]: 24.9%; viability, T/C [30]: 14.1%"
